We go through 13 compounds from article PMC5371393 (Journal of Medicinal Chemistry, 2016).

pKd: −log10 of the molar value.

For series [1], the target named is nucleotide-binding domain (NBD) of human HSC70 (HSC70-NBD residues 1–381) (Homo sapiens, UniProt P11142). As to the kind of experiment: SPR affinity against immobilised HSC70-NBD. The note with it: for fold increase in affinity compared to adenosine 1: comparator adenosine 1; for binding / affinity in words: SPR, HSC70-NBD, concentrations up to 1 mM; for fold improvement in affinity compared to 8-N-methylaminoadenosine 4: comparator 4 (Table 1, entry 2).

A further series has as its target HSP70. The following applies: previously described affinity of ADP for HSP70; cited from earlier work.

Chain of nucleotide-binding domain (NBD) of human HSC70 (HSC70-NBD residues 1–381) (P11142 1-381): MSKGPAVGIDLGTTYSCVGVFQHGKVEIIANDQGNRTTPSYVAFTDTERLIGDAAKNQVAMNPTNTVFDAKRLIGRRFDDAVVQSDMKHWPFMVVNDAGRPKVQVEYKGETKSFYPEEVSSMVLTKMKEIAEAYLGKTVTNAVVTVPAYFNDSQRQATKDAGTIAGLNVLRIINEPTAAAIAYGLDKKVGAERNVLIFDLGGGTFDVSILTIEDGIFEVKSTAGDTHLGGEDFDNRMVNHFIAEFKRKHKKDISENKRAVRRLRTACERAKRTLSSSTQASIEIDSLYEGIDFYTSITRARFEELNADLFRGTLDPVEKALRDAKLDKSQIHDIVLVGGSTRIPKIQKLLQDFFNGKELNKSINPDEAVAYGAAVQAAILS

With `Nc1ncnc2c1nc(N)n2[C@@H]1O[C@H](CO)[C@@H](O)[C@H]1O` [Compound 3, 8-aminoadenosine, reference compound], the “fold increase in affinity compared to adenosine 1” value (“fold increase in affinity” for short) in series [1] (SPR KD) was 16 fold.

Take `CNc1nc2c(N)ncnc2n1[C@@H]1O[C@H](CO)[C@@H](O)[C@H]1O` [Compound 4, (2R,3R,4S,5R)-2-(6-Amino-8-(methylamino)-9H-purin-9-yl)-5-(hydroxymethyl)tetrahydrofuran-3,4-diol]: the “fold drop in affinity compared to 8-aminoadenosine 3” value in series [1] (SPR KD, comparator 3) is recorded as 2.5 fold.

As to `COc1nc2c(N)ncnc2n1[C@@H]1O[C@H](CO)[C@@H](O)[C@H]1O` [Compound 6, (2R,3R,4S,5R)-2-(6-Amino-8-methoxy-9H-purin-9-yl)-5-(hydroxymethyl)tetrahydrofuran-3,4-diol], the “binding / affinity in words” value in series [1] was “complete loss of activity”.

Consider `CNc1nc2c(N)ncnc2n1[C@@H]1O[C@H](C)[C@@H](O)[C@H]1O` [Compound 7, (2R,3R,4S,5R)-2-(6-Amino-8-(methylamino)-9H-purin-9-yl)-5-methyltetrahydrofuran-3,4-diol], for which the “fold drop in affinity compared with 8-N-methylaminoadenosine 4” value in series [1] (SPR KD, comparator 4) came to 1.6 fold.

As to `Nc1ncnc2c1ccn2[C@@H]1O[C@H](CO)[C@@H](O)[C@H]1O` [Compound 8, Tubercidin, reference compound], the “fold increase in affinity” value in series [1] (SPR KD) was determined as 4 fold.

On to `N#Cc1cn([C@@H]2O[C@H](CO)[C@@H](O)[C@H]2O)c2ncnc(N)c12` [Compound 9, Toyocamycin, reference compound], for which the “binding / affinity in words” value in series [1] was “comparable affinity to adenosine 1”.

Take `NC(=O)c1cn([C@@H]2O[C@H](CO)[C@@H](O)[C@H]2O)c2ncnc(N)c12` [Compound 10, Sangivamycin, reference compound]: the “fold increase in affinity” value in series [1] (SPR KD) worked out at 35 fold. Besides, in series [1] (SPR off-rate analysis), the half-life result is recorded as “too short to be observed”.

As to `CNc1c(C#N)c2c(N)ncnc2n1[C@@H]1O[C@H](CO)[C@@H](O)[C@H]1O` [Compound 12, 4-Amino-7-((2R,3R,4S,5R)-3,4-dihydroxy-5-(hydroxymethyl)tetrahydrofuran-2-yl)-6-(methylamino)-7H-pyrrolo[2,3-d]pyrimidine-5-carbonitrile], in series [1] (SPR KD), the “fold improvement in affinity compared to 8-N-methylaminoadenosine 4” value is recorded as 5 fold. In series [1] (SPR KD, comparator 9), the “fold improvement in activity compared to toyocamycin 9” value is 27 fold.

Consider `CNc1c(C(N)=O)c2c(N)ncnc2n1[C@@H]1O[C@H](CO)[C@@H](O)[C@H]1O` [Compound 13, 4-Amino-7-((2R,3R,4S,5R)-3,4-dihydroxy-5-(hydroxymethyl)tetrahydrofuran-2-yl)-6-(methylamino)-7H-pyrrolo[2,3-d]pyrimidine-5-carboxamide], for which the “fold drop in affinity compared to sangivamycin 10” value in series [1] (SPR KD, comparator 10) is 7 fold.

`N#Cc1c(NCc2ccccc2)n([C@@H]2O[C@H](CO)[C@@H](O)[C@H]2O)c2ncnc(N)c12` [Compound 14, 4-Amino-6-(benzylamino)-7-((2R,3R,4S,5R)-3,4-dihydroxy-5-(hydroxymethyl)tetrahydrofuran-2-yl)-7H-pyrrolo[2,3-d]pyrimidine-5-carbonitrile]: in series [1], the “binding / affinity in words” value was “little change in affinity”.

Take `Nc1ncnc2c1nc(NCc1ccccc1)n2[C@@H]1O[C@H](CO)[C@@H](O)[C@H]1O` [Compound 15, (2R,3R,4S,5R)-2-(6-Amino-8-(benzylamino)-9H-purin-9-yl)-5-(hydroxymethyl)tetrahydrofuran-3,4-diol]: the “fold improvement in affinity compared to 8-N-methylaminoadenosine 4” value in series [1] (SPR KD) was determined as 12 fold.

For `Nc1ncnc2c1ncn2[C@@H]1O[C@H](COP(=O)(O)OP(=O)(O)O)[C@@H](O)[C@H]1O` [Compound 16, adenosine diphosphate], the pKd at HSP70 was 6.30.

Take `Nc1ncnc2c1nc(NCc1ccc(Cl)cc1)n2[C@@H]1O[C@H](CO)[C@@H](O)[C@H]1O` [Compound 18, (2R,3R,4S,5R)-2-(6-Amino-8-((4-chlorobenzyl)amino)-9H-purin-9-yl)-5-(hydroxymethyl)tetrahydrofuran-3,4-diol]: in series [1] (SPR KD), the “fold improvement in affinity compared to 8-N-methylaminoadenosine 4” value came to 60 fold. In addition, the “fold improvement in affinity compared to compound 15” value in series [1] (SPR KD, comparator 15) is on record as 5 fold.
